Source: patent US9458118B2, “Sodium channel modulators for the treatment of pain and diabetes” (CHROMOCELL CORPORATION, priority 2013, dated 2016)

Test system: rat
Experiment: Formalin test (pain behaviors)
Assay type: in vivo
Conditions: 150 μL of 1 or 2% w/v solution, topical route

O=C(O)CCNCCCc1cc(Cl)ccc1Oc1cc(F)c(S(=O)(=O)Nc2ncns2)cc1Cl [Compound 12, 3-((3-(2-(4-(N-(1,2,4-thiadiazol-5-yl)sulfamoyl)-2-chloro-5-fluorophenoxy)-5-chlorophenyl)propyl)amino)propanoic acid]
reduction in pain response (formalin assay phase 2) relative to vehicle control: 29-43% | reduction in pain response (formalin assay, phase 1) relative to vehicle control: 13-24%
